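Method: 48-hour compound exposure of cells in 96-well plates, five concentrations, linear interpolation of endpoints. GI50 is the concentration that inhibits growth by half. Definition used: TGI = concentration required for complete inhibition of growth.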
Tests used:
Assay in all cases: NCI anticancer screen, dose series, 48 h
[1] = test system: 786-0 renal
[2] = test system: A498 renal
[3] = test system: A549 NSCLC
[4] = test system: ACHN renal
[5] = test system: BT-549 breast
[6] = test system: CAKI-1 renal
[7] = test system: COLO 205 colon
[8] = test system: EKVX NSCLC
[9] = test system: HCC-2998 colon
[10] = test system: HCT-15 colon
[11] = test system: HL-60(TB) leukemia
[12] = test system: HOP-62 NSCLC
[13] = test system: HOP-92 NSCLC
[14] = test system: HS 578T breast
[15] = test system: HT29 colon
[16] = test system: IGROV1 ovarian
[17] = test system: K-562 leukemia
[18] = test system: KM12 colon
[19] = test system: MALME-3M melanoma
[20] = test system: MCF7 breast
[21] = test system: MDA-MB-231 breast
[22] = test system: MDA-MB-435
[23] = test system: MOLT-4 leukemia
[24] = test system: NCI-H226 lung
[25] = test system: NCI-H23 lung
[26] = test system: NCI-H460 lung
[27] = test system: NCI/ADR-RES ovarian
[28] = test system: OVCAR-3 ovarian
[29] = test system: OVCAR-4 ovarian
[30] = test system: OVCAR-5 ovarian
[31] = test system: PC-3 prostate
[32] = test system: RPMI-8226 leukemia
[33] = test system: RXF 393 renal
[34] = test system: SF-295 CNS
[35] = test system: SF-539 CNS
[36] = test system: SK-MEL-2 melanoma
[37] = test system: SK-MEL-28 melanoma
[38] = test system: SK-MEL-5 melanoma
[39] = test system: SK-OV-3 ovarian
[40] = test system: SN12C renal
[41] = test system: SNB-19 CNS
[42] = test system: SNB-75 CNS
[43] = test system: SR leukemia
[44] = test system: SW-620 colon
[45] = test system: T-47D breast
[46] = test system: TK-10 renal
[47] = test system: U251 CNS
[48] = test system: UACC-257 melanoma
[49] = test system: UACC-62 melanoma
[50] = test system: UO-31 renal

CC(=O)OC[C@]12CC[C@@H](C(=O)/C=C/c3cccnc3)[C@@H]1[C@H]1CC[C@@H]3[C@@]4(C)CC[C@H](OC(C)=O)C(C)(C)[C@@H]4CC[C@@]3(C)[C@]1(C)CC2
GI50 [1]: 2420 nM | TGI [1]: 6710 nM | GI50 [2]: 1330 nM | TGI [2]: 2840 nM | GI50 [3]: 1820 nM | TGI [3]: 4690 nM | GI50 [4]: 1610 nM | TGI [4]: 3020 nM | GI50 [5]: 1460 nM | TGI [5]: 2870 nM | GI50 [6]: 1260 nM | TGI [6]: 2700 nM | GI50 [7]: 1480 nM | TGI [7]: 3370 nM | GI50 [8]: 2180 nM | TGI [8]: 6990 nM | GI50 [9]: 1650 nM | TGI [9]: 3230 nM | GI50 [10]: 1500 nM | TGI [10]: 3340 nM | GI50 [11]: 450 nM | TGI [11]: 3290 nM | GI50 [12]: 2210 nM | TGI [12]: 6370 nM | GI50 [13]: 1080 nM | TGI [13]: 2470 nM | GI50 [14]: 2240 nM | TGI [14]: 6610 nM | GI50 [15]: 1870 nM | TGI [15]: 4740 nM | GI50 [16]: 1870 nM | TGI [16]: 4400 nM | GI50 [17]: 903 nM | TGI [17]: > 100000 nM | GI50 [18]: 1690 nM | TGI [18]: 4130 nM | GI50 [19]: 1380 nM | TGI [19]: 2880 nM | GI50 [20]: 1100 nM | TGI [20]: 2420 nM | GI50 [21]: 1500 nM | TGI [21]: 3610 nM | GI50 [22]: 1410 nM | TGI [22]: 3180 nM | GI50 [23]: 587 nM | TGI [23]: 4000 nM | GI50 [24]: 1720 nM | TGI [24]: 3850 nM | GI50 [25]: 1860 nM | TGI [25]: 4120 nM | GI50 [26]: 1310 nM | TGI [26]: 3010 nM | GI50 [27]: 1990 nM | TGI [27]: 4910 nM | GI50 [28]: 1710 nM | TGI [28]: 3290 nM | GI50 [29]: 3010 nM | TGI [29]: > 100000 nM | GI50 [30]: 1820 nM | TGI [30]: 4070 nM | GI50 [31]: 820 nM | TGI [31]: 4140 nM | GI50 [32]: 839 nM | TGI [32]: 3640 nM | GI50 [33]: 1620 nM | TGI [33]: 3050 nM | GI50 [34]: 1470 nM | TGI [34]: 3190 nM | GI50 [35]: 1590 nM | TGI [35]: 3070 nM | GI50 [36]: 1800 nM | TGI [36]: 3780 nM | GI50 [37]: 1440 nM | TGI [37]: 2890 nM | GI50 [38]: 1550 nM | TGI [38]: 2970 nM | GI50 [39]: 3320 nM | TGI [39]: 19000 nM | GI50 [40]: 1590 nM | TGI [40]: 4350 nM | GI50 [41]: 1890 nM | TGI [41]: 4640 nM | GI50 [42]: 1500 nM | TGI [42]: 5000 nM | GI50 [43]: 512 nM | TGI [43]: > 100000 nM | GI50 [44]: 1470 nM | TGI [44]: 3420 nM | GI50 [45]: 1060 nM | TGI [45]: 3530 nM | GI50 [46]: 1850 nM | TGI [46]: 3630 nM | GI50 [47]: 1600 nM | TGI [47]: 3350 nM | GI50 [48]: 1900 nM | TGI [48]: 4680 nM | GI50 [49]: 1670 nM | TGI [49]: 4080 nM | GI50 [50]: 1370 nM | TGI [50]: 2670 nM

— PubChem BioAssay (NCI)
